Earlier results in patent US5670663A (priority 1996, dated 1997).

What was measured:
[1] = system: 8A10; settings: monoclonal antibody 8A10
[2] = system: 31-15; settings: antibody printed 31-15
[3] = system: cancer
[4] = system: 3C6; settings: monoclonal antibody 3C6

Row | SMILES | cross reactivity with 8A10 [1] | relative affinity of antibody for baccatin III and its 7-epi isomer baccatin V [2] | activity against breast, lung and other cancers ([3]; breast, lung and other cancers) | antitumor activity ([3]; general statement) | reactivity with 3C6 [4]
1 | CC(=O)O[C@@]12CO[C@@H]1C[C@H](O)[C@@]1(C)C(=O)[C@H](O)C3=C(C)[C@@H](O)C[C@@](O)([C@@H](OC(=O)c4ccccc4)[C@H]21)C3(C)C [10-deacetylbaccatin III] | cross reacts | – | – | – | –
2 | C/C=C(\C)C(=O)N[C@@H](c1ccccc1)[C@@H](O)C(=O)O[C@H]1C[C@@]2(O)[C@@H](OC(=O)c3ccccc3)[C@@H]3[C@]4(OC(C)=O)CO[C@@H]4C[C@H](O)[C@@]3(C)C(=O)[C@H](OC(C)=O)C(=C1C)C2(C)C [Cephalomannine] | cross reacts | – | – | – | –
3 | CC(=O)O[C@H]1C(=O)[C@@]2(C)[C@H]([C@H](OC(=O)c3ccccc3)[C@]3(O)C[C@H](O)C(C)=C1C3(C)C)[C@]1(OC(C)=O)CO[C@@H]1C[C@@H]2O [baccatin III] | cross reacts | binds with equal affinity | – | – | –
4 | CC(=O)O[C@H]1C(=O)[C@]2(C)[C@H](O)C[C@H]3OC[C@@]3(OC(C)=O)[C@H]2[C@H](OC(=O)c2ccccc2)[C@]2(O)C[C@H](O)C(C)=C1C2(C)C [baccatin V] | – | binds with equal affinity | – | – | –
5 | CC(=O)O[C@H]1C(=O)[C@@]2(C)[C@H]([C@H](OC(=O)c3ccccc3)[C@]3(O)C[C@H](OC(=O)[C@H](O)[C@@H](NC(=O)c4ccccc4)c4ccccc4)C(C)=C1C3(C)C)[C@]1(OC(C)=O)CO[C@@H]1C[C@@H]2O [paclitaxel] | cross reacts | – | shown activity | significant antitumor activity | specifically reactive
